Patent US7112715B2, “Transgenic mouse for targeted recombination mediated by modified Cre-ER” (Gie-Cerbm, Centre Europeen de Recherche en Biologie et en …, priority 2000, dated 2006)

How the values were obtained:
[1] = tested on: skin papilloma formation induced by DMBA/TPA; assay: Antitumoral effect of topical retinoic acid on DMBA/TPA-induced skin papilloma; type: in vivo, mouse; conditions: for average number of tumors: ~25 weeks of DMBA/TPA treatment
Experimental: (§1) A single dose of 7,12-dimethylbenz(a)anthracene (DMBA) (5 μg in 100 μl acetone) was applied on the dorsal skin of 10–14 week old mice, 7 weeks before or 16 days after the first Tam or oil (vehicle) treatments. 12-0-tetradecanoylphorbol-13-acetate (TPA) (5 μg in 200 μl acetone) was applied twice a week for 25 to 30 weeks, starting one week after DMBA application. CT and RXRα^ep−/− mice were shaved 7 and 2 days before DMBA treatment, and every second week for 30 and 15 weeks, respectively. 8 weeks after DMBA treatment, all-trans retinoic acid (t-RA, 20 nmoles in ethanol) or vehicle was topically applied 15 min before each TPA application. • 1.10—Determination of the number and size of the tumors
(§2) The length of the papillomas and the diameter of the melanocytic were measured with a Vernier calliper on isofluorane anesthesised mice.

Cre-ER^T3 [2] = biological target: T1, Cre-ER^T3 (Homo sapiens, UniProt P03372, L544A/M543A); conditions: K5-Cre-ER^T3 mice; OHT dose 0.001 mg; day 2
Experimental: (§3) Immunohistochemistry of the chimeric Cre recombinase on sections of the epidermis of K5-Cre-ER^T2 and K5-Cre-ER^T3 mice treated either with 0.1 mg, 0.01 mg or 0.001 mg of OHT and analyzed two days (D 2) after the start of the treatment (D 0). The red color corresponds to labeling with the anti-Cre antibody directed against the Cre protein, and the Cyan color corresponds to DAPI.
(§4) After fixing in 2% paraformaldehyde, frozen sections of 10 μm are blocked in 5% normal goat serum (Vector Laboratories) incubated with the rabbit polyclonal antibody anti-MK6 (Babco). After washing in PBS/0.1% Tween 20, the sections are incubated with the donkey anti-rabbit IgG antibody conjugated with CY3 (Jackson Immuno Research) and then mounted in the Vectashield medium (Vector Laboratories) containing DAPI (4′,6-diamidino-2-phenylindole dihydrochloride; Boehringer Mannheim) (Brocard et al., 1997). The anti-Cre antibodies are used according to Indra et al. (1999). • 1.6—Immunohistochemistry
(§5) The sensitivity to OHT was tested in a first instance by analyzing the intracellular location of the chimeric proteins.

Cre-ER^T2 = Cre-ER^T2 (Homo sapiens, UniProt P03372, G400V/L544A/M543A); conditions: K5-Cre-ER^T2 mice; OHT dose 0.001 mg; day 2
Experimental: as §3, §4, §5

[3] = tested on: fusion protein between the recombinase Cre and the ligand-binding domain of the mutated human nuclear estrogen receptor; conditions: varies between a few percents and 80%; five infections of 8 mg; cited from earlier work
mouse ER LBD (mER) G525R = mouse ER LBD (mER) G525R (Mus musculus, UniProt P19785, G525R); conditions: cited from earlier work
Cre-ER^T3 [4] = biological target: T1, Cre-ER^T3; conditions: 1 and 0.1 mg of OHT; day 15
Experimental: Activity of β-galactosidase on sections of the epidermis of the tail of K5-Cre-ER^T2(tg/0)/Rosa^f1/1 and K5-Cre-ER^T3(tg/0)/Rosa^f1/+ mice treated with 1 mg, 0.1 mg, 0.01 mg and 0.001 mg of QHT. The analyses are carried out on the fifteenth day after the start of the treatment (D0).
as §5

melanocytic growths = assay: Melanocytic growths and lymph node melanocytes after DMBA or DMBA/TPA treatment of CT and RXRα^ep−/− mice; type: in vivo, mouse; conditions: for mice with enlarged and pigmented subiliac lymph nodes: 30 weeks
Experimental: A. Dorsal view of CT (K14-Cre-ER^T2(0/0)/RXRα^L2/L2) (left) and RXRα^ep−/− (right) mice 25 weeks after DMBA treatment. Arrows point to some or the melanocytic growths. B. Number of melanocytic growths in skin of CT and RXRα^ep−/− mice 30 weeks after DMBA and DMBA/TPA treatments, as indicated. Values are expressed as mean +/−SEM (n=6). *, p<0.05; ***, p<0.001, C. Size distribution of melanocytic growths in CT and RXRα^ep−/− mice. The number of 1–2 and 2–4 mm melanocytic growths was determined on CT and RXRα^ep−/− mice, 30 weeks after DMBA and DMBA/TPA treatments, as indicated. Values are expressed as mean +/−SEM (m=6).
Photograph of subiliac lymph nodes from CT (a and e) and RXRα^ep−/− (b and f) mice taken 30 weeks after DMBA and DMBA/TPA treatment, respectively. Hematoxylin and eosin stained 5 μm paraffin sections of CT (c and g) and RXRα^ep−/− (d and h) mice after DMBA and DMBA/TPA treatments, respectively. Scale bar, 33 μm.
Subiliac lymph nodes were isolated 30 weeks after DMBA application, fixed in 4% paraformaldehyde, photographed and embedded in paraffin. 5 μm-thick sections were stained with hematoxylin and eosin. • 1.8—Assay of blood parameters
as §1, §2

T1 sequence (P03372 with tags, fused parts or gaps M543A/L544A): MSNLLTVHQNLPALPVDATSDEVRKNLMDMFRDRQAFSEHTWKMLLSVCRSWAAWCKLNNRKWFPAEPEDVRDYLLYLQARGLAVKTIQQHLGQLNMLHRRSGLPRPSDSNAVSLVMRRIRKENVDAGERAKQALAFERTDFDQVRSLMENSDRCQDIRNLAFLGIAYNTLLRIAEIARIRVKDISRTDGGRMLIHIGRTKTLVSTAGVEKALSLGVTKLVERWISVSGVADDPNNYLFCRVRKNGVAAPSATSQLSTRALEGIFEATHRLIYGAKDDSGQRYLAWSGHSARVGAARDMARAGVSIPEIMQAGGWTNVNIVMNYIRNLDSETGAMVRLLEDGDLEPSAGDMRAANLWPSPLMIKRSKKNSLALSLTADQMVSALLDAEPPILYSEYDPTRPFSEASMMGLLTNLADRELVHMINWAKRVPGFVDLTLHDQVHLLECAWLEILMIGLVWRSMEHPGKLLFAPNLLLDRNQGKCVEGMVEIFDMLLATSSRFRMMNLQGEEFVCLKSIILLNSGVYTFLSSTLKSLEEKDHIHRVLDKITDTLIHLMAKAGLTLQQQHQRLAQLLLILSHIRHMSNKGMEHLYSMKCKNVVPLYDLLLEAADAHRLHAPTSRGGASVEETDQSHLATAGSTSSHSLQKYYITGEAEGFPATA
Sequence of mouse ER LBD (mER) G525R (P19785 whole entry G525R, the tested form may be a part): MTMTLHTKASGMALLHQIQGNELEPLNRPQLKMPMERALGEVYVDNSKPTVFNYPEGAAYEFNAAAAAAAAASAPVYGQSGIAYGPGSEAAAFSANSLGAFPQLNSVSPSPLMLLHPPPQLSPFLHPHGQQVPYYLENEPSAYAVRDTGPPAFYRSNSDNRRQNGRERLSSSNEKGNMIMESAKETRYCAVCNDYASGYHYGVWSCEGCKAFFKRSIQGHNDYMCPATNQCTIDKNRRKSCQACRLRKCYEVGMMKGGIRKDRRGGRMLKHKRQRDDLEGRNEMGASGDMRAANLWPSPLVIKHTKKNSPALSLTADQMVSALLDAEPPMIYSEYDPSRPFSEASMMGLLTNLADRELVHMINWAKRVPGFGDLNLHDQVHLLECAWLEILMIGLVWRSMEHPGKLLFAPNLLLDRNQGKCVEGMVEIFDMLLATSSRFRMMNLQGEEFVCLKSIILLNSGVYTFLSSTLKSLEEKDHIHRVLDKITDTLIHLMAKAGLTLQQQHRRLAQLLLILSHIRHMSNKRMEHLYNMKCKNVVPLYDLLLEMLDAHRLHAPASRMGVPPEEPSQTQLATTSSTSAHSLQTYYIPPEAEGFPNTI
Sequence of Cre-ER^T2 (P03372 with tags, fused parts or gaps G400V/M543A/L544A): as the sequence (P03372 with tags, fused parts or gaps M543A/L544A) above, with G465V counted along it

With `CC1=C(/C=C/C(C)=C/C=C/C(C)=C/C(=O)O)C(C)(C)CCC1` [t-RA, all-trans retinoic acid] the tumor formation ([1]; CT mice) was “efficiently inhibited”, the “size of the papilloma after treatment” value ([1]; CT mice, 25 weeks of RA treatment, from 2–3 mm, in 3 out of 8 papillomas of 6 mice) was 1 mm and the “size of the tumors” value ([1]; RA treated CT mice) was “below 2 mm”. For the same compound, the “average number of tumors” value ([1]; RA treated CT mice) was 1, the “tumors larger than 12 mm” value ([1]; RA treated RXRα^ep−/− mice) was roughly 11% and the “average number of tumors” value ([1]; RA treated RXRα^ep−/− mice) was roughly 17. The “change in size of the papilloma” value ([1]; RXRα^ep−/− mice) was “no decrease in size”, the “number and size of melanocytic growths, RXRα^ep−/− compared to CT mice” value ([1]; after RA treatment) was “increased” and the “skin papilloma formation induced by DMBA/TPA” value ([1]; topical, female and male wild-type 129Sv) was “efficiently blocked”.

In the case of 4-hydroxytamoxifen [OHT], the “nuclei strongly labeled with anti-Cre antibodies in the basal layer of the epidermis” value (Cre-ER^T3 [2]) is listed as “about ⅓”, the “nuclei labeled with anti-Cre antibodies in the skin” value (Cre-ER^T2) is listed as “no positive nucleus” and the “efficiency of site-specific recombination in cells expressing the fusion protein” value [3] is listed as no more than 80%. For the same compound, the “effect of the G525R mutation on binding” value (mouse ER LBD (mER) G525R) was “without adversely affecting the binding” and the “excision levels, K5-Cre-ER^T3 versus K5-Cre-ER^T2 line” value (Cre-ER^T3 [4]) was “similar”.

For `Cc1c2ccccc2c(C)c2c1ccc1ccccc12` [DMBA, 7,12-dimethylbenz(a)anthracene], the “induction of melanocytic growths, RXRα^ep−/− versus CT mice” value (melanocytic growths; DMBA alone) was roughly 7 fold, the “mice with enlarged and pigmented subiliac lymph nodes” value (melanocytic growths; DMBA, CT mice) was 0/4 and the “mice with enlarged and pigmented subiliac lymph nodes” value (melanocytic growths; DMBA, RXRα^ep−/− mice) was “two out of 4”. For the same compound, the “melanosomes per melanocyte, RXRα^ep−/− versus CT melanocytes” value (melanocytic growths; DMBA, electron microscopy) was roughly 10 fold.
